Data taken from the supplement of paper PMC10307832.

Assays:
Assay in all cases: relative viability (nuclei count vs DMSO), 5 days (fraction); higher = more cells survive
JZL-184 + Pemetrexed = compound: C1CN(CCC1C(C2=CC3=C(C=C2)OCO3)(C4=CC5=C(C=C4)OCO5)O)C(=O)OC6=CC=C(C=C6)[N+](=O)[O-] [JZL-184] + Nc1nc2[nH]cc(CCc3ccc(C(=O)N[C@@H](CCC(=O)O)C(=O)O)cc3)c2c(=O)[nH]1 [Pemetrexed] (partner 0.2 µM)
In short: (§1)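 Lung cancer cell lines, seeded in 1536-well plates, were treated the following day by pin tool with a single drug or with five library-drug doses (not always all listed) in √10 steps on top of a fixed anchor-drug dose. Cells were fixed and nuclei stained in one step after 5 days, and nuclei were counted. Relative viability is the nuclei count for treated wells divided by that for vehicle wells, reported as medians of duplicate plates.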

JZL-184 + Linsitinib = compound: C1CN(CCC1C(C2=CC3=C(C=C2)OCO3)(C4=CC5=C(C=C4)OCO5)O)C(=O)OC6=CC=C(C=C6)[N+](=O)[O-] [JZL-184] + C[C@]1(O)C[C@@H](c2nc(-c3ccc4ccc(-c5ccccc5)nc4c3)c3c(N)nccn32)C1 [Linsitinib] (partner 1 µM)
In short: as §1

JZL-184 + Bortezomib = compound: C1CN(CCC1C(C2=CC3=C(C=C2)OCO3)(C4=CC5=C(C=C4)OCO5)O)C(=O)OC6=CC=C(C=C6)[N+](=O)[O-] [JZL-184] + CC(C)C[C@H](NC(=O)[C@H](Cc1ccccc1)NC(=O)c1cnccn1)B(O)O [Bortezomib] (partner 0.002 µM)
In short: as §1

JZL-184 + Tozasertib = compound: C1CN(CCC1C(C2=CC3=C(C=C2)OCO3)(C4=CC5=C(C=C4)OCO5)O)C(=O)OC6=CC=C(C=C6)[N+](=O)[O-] [JZL-184] + Cc1cc(Nc2cc(N3CCN(C)CC3)nc(Sc3ccc(NC(=O)C4CC4)cc3)n2)n[nH]1 [Tozasertib] (partner 0.1 µM)
In short: as §1

JZL-184 + Phenformin = compound: C1CN(CCC1C(C2=CC3=C(C=C2)OCO3)(C4=CC5=C(C=C4)OCO5)O)C(=O)OC6=CC=C(C=C6)[N+](=O)[O-] [JZL-184] + N=C(N)NC(=N)NCCc1ccccc1 [Phenformin] (partner 250 µM)
In short: as §1

Cell Line	relative viability (JZL-184 + Pemetrexed; first compound 0.04 µM)	relative viability (JZL-184 + Pemetrexed; first compound 0.4 µM)	relative viability (JZL-184 + Pemetrexed; first compound 1.265 µM)	relative viability (JZL-184 + Pemetrexed; first compound 4 µM)	relative viability (JZL-184 + Linsitinib; first compound 0.04 µM)	relative viability (JZL-184 + Linsitinib; first compound 0.4 µM)	relative viability (JZL-184 + Linsitinib; first compound 1.265 µM)	relative viability (JZL-184 + Linsitinib; first compound 4 µM)	relative viability (JZL-184 + Bortezomib; first compound 0.04 µM)	relative viability (JZL-184 + Bortezomib; first compound 0.4 µM)	relative viability (JZL-184 + Bortezomib; first compound 1.265 µM)	relative viability (JZL-184 + Bortezomib; first compound 4 µM)	relative viability (JZL-184 + Tozasertib; first compound 0.04 µM)	relative viability (JZL-184 + Tozasertib; first compound 0.4 µM)	relative viability (JZL-184 + Tozasertib; first compound 1.265 µM)	relative viability (JZL-184 + Tozasertib; first compound 4 µM)	relative viability (JZL-184 + Phenformin; first compound 0.04 µM)	relative viability (JZL-184 + Phenformin; first compound 0.4 µM)	relative viability (JZL-184 + Phenformin; first compound 1.265 µM)	relative viability (JZL-184 + Phenformin; first compound 4 µM)
RERF-LC-KJ	0.496	0.463	0.468	0.44	0.874	0.854	0.867	0.873	1.15	0.96	1.11	1.04	0.499	0.37	0.453	0.436	0.479	0.357	0.382	0.371
NCI-H322M	0.591	0.604	0.615	0.538	0.823	0.938	0.984	0.907	1.15	1.16	1.27	1.27	0.441	0.444	0.49	0.401	0.844	0.718	0.818	0.662
NCI-H1651	0.592	0.362	0.411	0.595	0.988	0.927	0.933	0.816	0.993	0.954	1	0.999	0.771	0.703	0.689	0.668	0.393	0.3	0.337	0.353
HARA	0.289		0.268	0.254	0.97	0.869	0.935	0.994	1.11	0.967	1.17	1.09	0.134	0.0806	0.107	0.108	0.376	0.39	0.481	0.407
H3255	0.632	0.49	0.522	0.553	1.05	0.917	1.09	0.892	0.954	0.708	1.01	0.75	0.613	0.65	0.747	0.623	0.321	0.323	0.336	0.422
NCI-H441	0.277	0.248	0.239	0.285	0.534	0.401	0.672	0.606	0.379	0.373	0.227	0.591	0.769	0.567	0.533	0.513	0.818	0.802	0.914	0.923
CAL-12T	1.4	0.997	1.22	1.08	1.06	0.775	0.828	0.75	1.15	0.942	1.18	1.08	0.336	0.269	0.336	0.228	0.751	0.26	0.626	0.539
NCI-H1437	0.306	0.322	0.309	0.312	1.24	1.01	1.07	0.958	0.594	0.512	0.479	0.373	0.395	0.398	0.397	0.402	0.301	0.307	0.302	0.288
HOP-62	0.331	0.312	0.306	0.309	1.09	1.13	0.992	0.784	1.09	0.862	0.809	0.856	0.356	0.402	0.366	0.335	0.787	0.639	0.705	0.683
EPLC-272H	0.316	0.22	0.351	0.319	1.19	1.11	1.35	1.14	1.03	0.735	1.06	0.839	0.59	0.277	0.31	0.198	0.303	0.293	0.351	0.34
COR-L 105	1.23	1.07	1.18	1.09	1.11	0.806	0.83	0.828	0.922	0.742	0.837	0.759	0.381	0.398	0.381	0.319	0.595	0.497	0.548	0.436
HCC-366	0.175	0.146	0.137	0.161	0.643	0.49	0.675	0.63	1.26	1.01	1.09	0.978	0.133	0.508	0.109	0.0909	0.664	0.553	0.653	0.624
HCC-44	0.708	0.621	0.688	0.64	0.619	0.631	0.728	0.636	0.8	0.878	0.836	0.856	1.27	0.805	1.26	0.983	0.231	0.104	0.245	0.185
NCI-H2009	1.14	1.03	1.04	0.994	1.18	1.13	1.2	1.19	1.2	0.946	1.02	0.938	0.798	0.699	0.758	0.651	0.518	0.473	0.51	0.461
NCI-H23	0.772		0.704	0.597	0.552	0.56	0.651	0.728	1.24	0.765	1.21	1.07	0.375	0.307	0.414	0.316	0.879	0.793	0.817	0.855
